# According to US12016864B2, “LOX enzyme inhibiting methods and compositions” (ANOVIA BIOSCIENCES, INC., priority 2021, dated 2024):
# Target: T1, Recombinant human LOXL2 (lysyl oxidase like 2) (Homo sapiens, UniProt Q9Y4K0)
# T1 construct: purchased R&D systems
# T1 sequence (Q9Y4K0 26-774): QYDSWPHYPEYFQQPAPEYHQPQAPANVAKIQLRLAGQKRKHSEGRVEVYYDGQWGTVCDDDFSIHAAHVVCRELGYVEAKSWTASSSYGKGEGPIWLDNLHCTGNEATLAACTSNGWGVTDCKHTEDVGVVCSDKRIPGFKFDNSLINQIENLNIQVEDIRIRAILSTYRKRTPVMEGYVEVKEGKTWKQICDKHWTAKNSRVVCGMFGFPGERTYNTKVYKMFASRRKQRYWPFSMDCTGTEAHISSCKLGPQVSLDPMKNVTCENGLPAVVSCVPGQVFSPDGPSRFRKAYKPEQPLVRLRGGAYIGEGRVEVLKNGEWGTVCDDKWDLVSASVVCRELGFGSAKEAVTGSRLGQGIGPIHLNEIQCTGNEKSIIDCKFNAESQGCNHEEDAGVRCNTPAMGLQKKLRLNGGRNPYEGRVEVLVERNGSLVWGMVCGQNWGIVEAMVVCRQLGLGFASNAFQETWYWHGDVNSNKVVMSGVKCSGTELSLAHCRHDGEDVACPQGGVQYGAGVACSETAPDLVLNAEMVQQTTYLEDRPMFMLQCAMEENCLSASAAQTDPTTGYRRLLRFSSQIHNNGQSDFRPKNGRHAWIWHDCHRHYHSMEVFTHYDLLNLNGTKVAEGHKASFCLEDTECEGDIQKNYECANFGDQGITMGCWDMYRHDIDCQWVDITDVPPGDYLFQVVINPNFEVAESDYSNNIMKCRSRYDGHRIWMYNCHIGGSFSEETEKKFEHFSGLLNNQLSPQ
# Experiment: LOXL2 inhibition assay, fluorometric (cadaverine / HRP / Amplex Red)
# Type: biochemical
# Settings: recombinant human LOXL2 130 nM; 30 min preincubation at 37° C.; 2.5 mM cadaverine; read-out: Activity Range LOXL2
# Procedure: The ability of compounds to inhibit one or more of the lysyl oxidases LOXL2 and/or LOXL3 was determined using a fluorometric assay. This assay measures the activity of lysyl oxidases by coupling the reaction with horseradish peroxidase-catalyzed […]. The activity assay protocol uses cadaverine as substrate that releases hydrogen peroxide upon transformation by the specific LOX family enzyme present in the sample. Hydrogen peroxide is in turn detected using a red fluorescence substrate for HRP-coupled reactions (Amplex Red Enzyme Assays, Thermo Scientific Fisher). This leads to increase in fluorescence that can be easily detected at Ex/Em=540/590 nm in a fluorescence microplate reader.
# Recombinant human LOXL2 (lysyl oxidase like 2) and recombinant human LOXL3 (lysyl oxidase like 3) were purchased from R&D systems and assays were performed in 1.2 M urea, 50 mM sodium borate buffer pH 8.0, and 10 mM CaCl.
# 5 μl of freshly prepared reaction buffer were delivered to reaction wells. Compounds were resuspended in 100% DMSO at 10 mM and delivered into buffer using acoustic technology (Echo550; nanoliter range). A 3× solution of LOXL2 or LOXL3 in reaction buffer was prepared (“enzyme solution”) and 5 μL of enzyme solution was added into the reaction wells. Buffer only was added to column 1 for no protein control. Reactions were incubated for 30 minutes at 37° C. A 3× mixture of cadaverine, Amplex Red, and HRP (“Substrate/Detection Mix) was prepared and subsequently 5 μL of the mixture added to each reaction well. Progress of reactions was monitored for 60 minutes at 37° C. using Clariostar plate reader (ex 530-12, ems 600-40). For all activity assays, pan-LOX inhibitor CCT365623 (Tang et al, 2017) and LOXL2/LOXL3 inhibitor PAT-1251 (PharmaKea) were included as standards.
# For the data analysis, the slope of the linear portion of the progress curve was calculated using Clariostar software. Typical analysis interval was between 8-30 min, but varied between experiments. The background-subtracted signals (No protein wells are considered as background) were converted to % activity relative to DMSO controls. Data was analyzed using GraphPad Prism 4 with “sigmoidal dose-response (variable slope)”; 4 parameters with Hill Slope. Constraints: Bottom=Constant equal to 0. Top=Must be less than 120.
row,Compound,IC50 [nM]
1,"NCc1ccnc(OC[C@H]2C[C@H](c3ccccc3)CN(S(=O)(=O)N3CCOCC3)C2)c1 (relative stereo) [Example 220T, trans-(2-((1-(Morpholinosulfonyl)-5-phenylpiperidin-3-yl)methoxy)pyridin-4-yl)methanamine 2,2,2-trifluoroacetate]",500 to 1000
2,"NCc1cccc(OC[C@H]2C[C@H](c3ccccc3)CN(S(=O)(=O)N3CCOCC3)C2)c1 (relative stereo) [Example 221T, trans-(3-((1-(Morpholinosulfonyl)-5-phenylpiperidin-3-yl)methoxy)phenyl)methanamine 2,2,2-trifluoroacetate]",≤ 500
3,"NCc1ccc(S(=O)(=O)C[C@@H]2C[C@H](c3ccccc3F)CN2S(=O)(=O)N2CCS(=O)(=O)CC2)s1 (racemic) [Example 209, cis-4-((2-(((5-(Aminomethyl)thiophen-2-yl)sulfonyl)methyl)-4-(2-fluorophenyl)pyrrolidin-1-yl)sulfonyl)thiomorpholine 1,1-dioxide 2,2,2-trifluoroacetate]",≤ 500
4,"NCc1ccnc(OC[C@@H]2C[C@H](c3ccccc3F)CN2S(=O)(=O)N2CCS(=O)(=O)CC2)c1 (racemic) [Example 213, cis-4-((2-(((4-(Aminomethyl)pyridin-2-yl)oxy)methyl)-4-(2-fluorophenyl)pyrrolidin-1-yl)sulfonyl)thiomorpholine 1,1-dioxide 2,2,2-trifluoroacetate]",≤ 500
5,"NCc1ccnc(OC[C@@H]2C[C@H](c3ccccc3)CN(S(=O)(=O)N3CCOCC3)C2)c1 (racemic) [Example 220, cis-(2-((1-(Morpholinosulfonyl)-5-phenylpiperidin-3-yl)methoxy)pyridin-4-yl)methanamine 2,2,2-trifluoroacetate]",≤ 500
6,"CS(=O)(=O)N1C[C@@H](c2ccccc2)C[C@H]1CS(=O)(=O)c1ccc(CN)s1 (racemic) [Example 223, cis-(5-(((1-(Methylsulfonyl)-4-phenylpyrrolidin-2-yl)methyl)sulfonyl)thiophen-2-yl)methanamine 2,2,2-trifluoroacetate]",≤ 500
7,"NCc1cccc(OC[C@@H]2C[C@H](c3ccccc3F)CN2S(=O)(=O)N2CCS(=O)(=O)CC2)c1 (racemic) [Example 217, cis-4-((2-((3-(Aminomethyl)phenoxy)methyl)-4-(2-fluorophenyl)pyrrolidin-1-yl)sulfonyl)thiomorpholine 1,1-dioxide 2,2,2-trifluoroacetate]",500 to 1000
8,"NCc1cccc(OC[C@@H]2C[C@H](c3ccccc3)CN(S(=O)(=O)N3CCOCC3)C2)c1 (racemic) [Example 221, cis-(3-((1-(Morpholinosulfonyl)-5-phenylpiperidin-3-yl)methoxy)phenyl)methanamine 2,2,2-trifluoroacetate]",≤ 500
9,"NCc1ccnc(OC[C@H]2C[C@H](C3CCCCC3)CN(S(=O)(=O)N3CCS(=O)(=O)CC3)C2)c1 (racemic) [Example 235T, trans-4-((3-(((4-(Aminomethyl)pyridin-2-yl)oxy)methyl)-5-cyclohexylpiperidin-1-yl)sulfonyl)thiomorpholine 1,1-dioxide 2,2,2-trifluoroacetate]",≤ 500
10,"NCc1ccnc(S(=O)(=O)C[C@@H]2C[C@H](c3ccccc3F)CN2S(=O)(=O)N2CCS(=O)(=O)CC2)c1 (racemic) [Example 205, cis-4-((2-(((4-(Aminomethyl)pyridin-2-yl)sulfonyl)methyl)-4-(2-fluorophenyl)pyrrolidin-1-yl)sulfonyl)thiomorpholine 1,1-dioxide 2,2,2-trifluoroacetate]",≤ 500
11,"NCc1ccnc(OC[C@@H]2C[C@H](c3ccccc3F)CN2S(=O)(=O)N2CCOCC2)c1 (racemic) [Example 211, cis-(2-((4-(2-Fluorophenyl)-1-(morpholinosulfonyl)pyrrolidin-2-yl)methoxy)pyridin-4-yl)methanamine; trifluoroacetic acid]",≤ 500
12,"NCc1ccnc(S(=O)(=O)C[C@H]2C[C@H](c3ccccc3)CN(S(=O)(=O)N3CCOCC3)C2)c1 (racemic) [Example 219T, trans-(2-(((1-(Morpholinosulfonyl)-5-phenylpiperidin-3-yl)methyl)sulfonyl)pyridin-4-yl)methanamine 2,2,2-trifluoroacetate]",≤ 500
13,"NCc1cccc(OC[C@@H]2C[C@H](c3ccccc3F)CN2S(=O)(=O)N2CCOCC2)c1 (racemic) [Example 215, cis-(3-((4-(2-Fluorophenyl)-1-(morpholinosulfonyl)pyrrolidin-2-yl)methoxy)phenyl)methanamine]",500 to 1000
14,"NCc1ccnc(OC[C@@H]2C[C@H](C3CCCCC3)CN(S(=O)(=O)N3CCOCC3)C2)c1 (relative stereo) [Example 231, cis-(2-((5-Cyclohexyl-1-(morpholinosulfonyl)piperidin-3-yl)methoxy)pyridin-4-yl)methanamine 2,2,2-trifluoroacetate]",≤ 500
15,"NCc1ccnc(S(=O)(=O)C[C@@H]2C[C@H](c3ccccc3)CN(S(=O)(=O)N3CCOCC3)C2)c1 (racemic) [Example 219, cis-(2-(((1-(Morpholinosulfonyl)-5-phenylpiperidin-3-yl)methyl)sulfonyl)pyridin-4-yl)methanamine 2,2,2-trifluoroacetate]",≤ 500
16,"NCc1ccnc(S(=O)(=O)C[C@H]2C[C@H](C3CCCCC3)CN(S(=O)(=O)N3CCS(=O)(=O)CC3)C2)c1 (relative stereo) [Example 234T, trans-4-((3-(((4-(Aminomethyl)pyridin-2-yl)sulfonyl)methyl)-5-cyclohexylpiperidin-1-yl)sulfonyl)thiomorpholine 1,1-dioxide 2,2,2-trifluoroacetate]",≤ 500
17,"NCc1ccnc(S(=O)(=O)C[C@H]2C[C@H](C3CCCCC3)CN(S(=O)(=O)N3CCOCC3)C2)c1 (relative stereo) [Example 230T, trans-(2-(((5-Cyclohexyl-1-(morpholinosulfonyl)piperidin-3-yl)methyl)sulfonyl)pyridin-4-yl)methanamine 2,2,2-trifluoroacetate]",≤ 500
18,"NCc1ccc(S(=O)(=O)C[C@H]2C[C@H](c3ccccc3)CN(S(=O)(=O)N3CCOCC3)C2)s1 (relative stereo) [Example 222T, trans-(5-(((1-(Morpholinosulfonyl)-5-phenylpiperidin-3-yl)methyl)sulfonyl)thiophen-2-yl)methanamine 2,2,2-trifluoroacetate]",≤ 500
19,"NCc1ccnc(OC[C@@H]2CC(C3CCCCC3)CN2S(=O)(=O)N2CCOCC2)c1 (mixture of isomers) [Example 239RAC, (2-(((2S)-4-Cyclohexyl-1-(morpholinosulfonyl)pyrrolidin-2-yl)methoxy)pyridin-4-yl)methanamine 2,2,2-trifluoroacetate]",≤ 500
20,"NCc1ccnc(OC[C@H]2C[C@H](C3CCCCC3)CN(S(=O)(=O)N3CCOCC3)C2)c1 [Example 231T, trans-(2-(((3S,5R)-5-cyclohexyl-1-(morpholinosulfonyl)piperidin-3-yl)methoxy)pyridin-4-yl)methanamine]",≤ 500
21,"NCc1ccc(S(=O)(=O)C[C@@H]2C[C@H](c3ccccc3)CN(S(=O)(=O)N3CCOCC3)C2)s1 (racemic) [Example 222, cis-(5-(((1-(Morpholinosulfonyl)-5-phenylpiperidin-3-yl)methyl)sulfonyl)thiophen-2-yl)methanamine 2,2,2-trifluoroacetate]",≤ 500
